Reference: patent US20140230091A1, “MODIFIED PLANTS WITH INCREASED OIL CONTENT” (BROOKHAVEN SCIENCE ASSOCIATES, LLC, priority 2011, published 2014)
Marks after values point to notes of the source that are not given here.

Columns and labels:
[1] = test system: Brassica napus cv Jet Neuf suspension cell cultures; experiment: Cell culture growth and analysis of B. napus suspension cells fed Tween-80; type: cell-based; settings: concentrations up to 10 mM
Method: Brassica napus cv Jet Neuf suspension cell cultures were grown in NLN medium (Lichter 1982, Z. Pflanzenphysiol, 105, 427-434) with modifications (Shi et al. 2008, Plant Cell Tiss Org, 92 131-139). Cells were grown shaking at 160 rpm at 25° C. in either 50 mL or 100 mL volumes (in 125 mL or 250 mL flasks, respectively) under constant fluorescent light at 50 […]. Medium was refreshed every 48 h for experiments lasting longer than two days. Tween-esters were obtained from Sigma (St. Louis, Mo. USA). A 150 mM stock solution was made by dissolving 9.8 g in 50 mL of water and it was filter sterilized before addition to cultures. Subculturing was done every eight days and new cultures were inoculated with about 200 mg of cells. Cells were harvested by filtering with a Buchner funnel, were rinsed three times with distilled water, and were frozen immediately in liquid N2 in preweighed aluminum foil pouches. Dry weight to fresh weight ratio was determined by lyophilizing a known fresh weight of cells. For SDS-PAGE, proteins were extracted in 3 volumes (w/v) of 50 mM Tris-Cl, pH 7.5, 10 mM KCl, 5 mM MgCl2, 1 mM EDTA, 1 mM DTT, 0.1% Triton X-100, and were quantified by Bradford assay.
In order to study the feedback regulation of fatty acid synthesis it was necessary to first establish conditions where fatty acids could be fed while minimizing any negative pleiotropic effects. […]

ACCase = ACCase enzyme assay on crude cell extracts; type: biochemical, Brassica napus
Method: All chemicals were obtained from Sigma and radioisotopes from American Radiolabeled Chemicals. ACCase activity was measured as the acetyl-CoA dependent incorporation of ^14C—NaHC03 into acid and stable products. Crude cell extracts were prepared by grinding fresh cells in 3 volumes (w/v) of 50 mM Tris-Cl, pH 7.5, 100 mM KCl, 5 mM MgCl2, 1 mM DTT, 0.1% TritonX-100, 10% glycerol, and plant protease inhibitor cocktail (Sigma). Homogenate was gently mixed on ice for 10 min and then centrifuged for 5 min at 3000 g. Desalting of extracts was done with PD-10 columns (GE Life Sciences). […] Reactions were initiated by the addition of 5 μlL cell extract and were stopped by the addition of 15 μL 12 N HCL. The contents were dried completely at 55° C. and the solids were resuspended in 30 μL water and counted by liquid scintillation spectroscopy. Minus acetyl-CoA controls were always included. Assays went for 30 min, except when measuring the effects of metabolites (10 min). Metabolites were added to the reaction immediately after cell extract to preserve labile thioester bonds. FFA stock solutions were made in ethanol and acyl-CoAs were suspended in water.

Substance: Tween-80
- effect on growth rate [1]: no effect
- ACCase activity (ACCase; crude extracts of cells fed 10 mM Tween-80 for three hours, mean of four repeats ± SD): 1.73 ± 0.10^a nmol min^−1 mg^−1
- effect on ACCase activity (ACCase; included in assay of crude cell extract, FFA up to 10 μM): no effect
